This is an account of results in ChEMBL document CHEMBL1141528, “Identification of pyrrolo[2,1-f][1,2,4]triazine-based inhibitors of Met kinase” (Bioorg Med Chem Lett, 2008).

pIC50: −log10 of the molar value. Converted amounts (≈) assume the structure as drawn.

A short description of data set [1]: Antiproliferative activity against human GTL16 cells after 72 hrs by tetrazolium-based colorimetric assay. As to conditions: GTL 16, 72 h.
Data set [2] in a line: Aqueous solubility at pH 6.5. It counts as physicochemical.
The next data set concerns Liver. The data set is described as follows: Metabolic stability in mouse liver microsomes. It counts as ADME, Microsome. A general note: Liver microsomes are vesicles of endoplasmic reticulum, rich in cytochrome P450 enzymes.
Data set [3] in a line: Metabolic stability per 10^6 cells in mouse hepatocytes. It counts as ADME, cell-based, Hepatocyte.
A short description of data set [4]: Clearance in mouse at 20 mg/kg, iv. It counts as ADME, organism-based. As to conditions: in vivo. Details: dose 20 mg/kg, route intravenous.
A short description of data set [5]: Bioavailability in mouse at 20 mg/kg, ip. It counts as ADME, organism-based. Particulars: in vivo.
A short description of data set [6]: Cmax in mouse at 50 mg/kg, po. On the set-up: dose 50 mg/kg, route oral. It counts as ADME, organism-based. Particulars: in vivo.
A short description of data set [7]: Permeability across human Caco-2 cells. Type of data set: ADME, cell-based. As to conditions: read-out: permeability.
The target of data set [8] is Insulin-like growth factor 1 receptor (Homo sapiens, UniProt P08069). The data set is described as follows: Inhibition of IGF1R.
Sequence of Insulin-like growth factor 1 receptor (P08069 31-736 limits assumed): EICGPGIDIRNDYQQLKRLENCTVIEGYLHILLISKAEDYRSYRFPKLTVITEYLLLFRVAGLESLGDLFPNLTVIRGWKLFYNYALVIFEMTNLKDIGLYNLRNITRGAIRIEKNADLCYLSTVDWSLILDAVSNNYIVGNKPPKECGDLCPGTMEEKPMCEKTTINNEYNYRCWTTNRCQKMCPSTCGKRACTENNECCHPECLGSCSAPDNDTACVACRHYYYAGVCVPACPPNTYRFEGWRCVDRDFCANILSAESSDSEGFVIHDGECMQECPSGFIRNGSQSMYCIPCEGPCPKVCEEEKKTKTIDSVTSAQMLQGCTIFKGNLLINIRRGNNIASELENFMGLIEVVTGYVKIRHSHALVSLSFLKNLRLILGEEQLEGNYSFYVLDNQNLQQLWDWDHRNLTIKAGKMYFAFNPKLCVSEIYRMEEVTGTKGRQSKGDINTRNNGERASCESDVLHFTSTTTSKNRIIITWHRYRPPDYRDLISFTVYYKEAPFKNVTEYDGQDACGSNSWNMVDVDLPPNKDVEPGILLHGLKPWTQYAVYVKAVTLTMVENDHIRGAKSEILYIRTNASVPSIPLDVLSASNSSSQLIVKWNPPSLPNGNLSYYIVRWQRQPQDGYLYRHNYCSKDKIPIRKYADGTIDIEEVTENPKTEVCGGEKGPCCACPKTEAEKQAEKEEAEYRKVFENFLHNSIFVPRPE
Sequence of Insulin-like growth factor 1 receptor (P08069 741-1367 limits assumed): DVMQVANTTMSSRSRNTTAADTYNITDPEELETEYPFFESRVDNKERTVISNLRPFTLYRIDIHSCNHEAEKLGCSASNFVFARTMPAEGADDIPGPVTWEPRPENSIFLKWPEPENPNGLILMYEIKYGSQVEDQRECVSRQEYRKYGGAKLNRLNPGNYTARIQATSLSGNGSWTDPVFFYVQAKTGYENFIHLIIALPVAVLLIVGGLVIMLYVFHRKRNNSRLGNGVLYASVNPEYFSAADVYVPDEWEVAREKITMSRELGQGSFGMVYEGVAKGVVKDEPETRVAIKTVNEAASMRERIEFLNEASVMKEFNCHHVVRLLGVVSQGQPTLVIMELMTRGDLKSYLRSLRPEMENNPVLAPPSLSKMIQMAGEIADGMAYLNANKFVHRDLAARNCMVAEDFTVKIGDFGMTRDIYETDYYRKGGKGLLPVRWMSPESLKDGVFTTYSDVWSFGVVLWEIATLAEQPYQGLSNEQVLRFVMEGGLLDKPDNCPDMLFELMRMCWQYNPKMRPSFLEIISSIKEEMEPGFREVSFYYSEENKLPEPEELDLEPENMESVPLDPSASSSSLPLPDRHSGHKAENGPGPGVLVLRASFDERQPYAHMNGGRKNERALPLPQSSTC
The next data set addresses Insulin receptor (Homo sapiens, UniProt P06213). The data set is described as follows: Inhibition of InsR.
Data set [9] concerns the target Vascular endothelial growth factor receptor 2 (Homo sapiens, UniProt P35968). Briefly: Inhibition of VEGFR2.
Data set [10] has as its target Cyclin-dependent kinase 2 (Homo sapiens, UniProt P24941). The data set is described as follows: Inhibition of CDK2.
Data set [11] can be described thus: Inhibition of PKC.
A short description of data set [12]: Inhibition of PKA.
For data set [13], the target named is Receptor tyrosine-protein kinase erbB-2 (Homo sapiens, UniProt P04626). The data set is described as follows: Inhibition of HER2.
In data set [14] the target is MAP kinase-activated protein kinase 2 (Homo sapiens, UniProt P49137). Briefly: Inhibition of MK2.
Sequence of MAP kinase-activated protein kinase 2 (P49137 whole entry): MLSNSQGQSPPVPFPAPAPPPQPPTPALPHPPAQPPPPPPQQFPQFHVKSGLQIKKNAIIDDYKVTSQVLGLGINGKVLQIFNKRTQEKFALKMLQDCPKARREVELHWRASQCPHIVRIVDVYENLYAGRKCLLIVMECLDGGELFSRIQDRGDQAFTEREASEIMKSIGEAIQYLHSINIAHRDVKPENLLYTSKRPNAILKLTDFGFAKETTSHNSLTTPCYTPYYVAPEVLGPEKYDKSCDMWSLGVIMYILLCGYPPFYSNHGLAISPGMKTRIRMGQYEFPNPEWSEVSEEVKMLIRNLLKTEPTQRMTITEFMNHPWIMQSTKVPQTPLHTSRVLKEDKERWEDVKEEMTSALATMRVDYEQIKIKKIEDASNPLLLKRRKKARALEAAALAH
The target of data set [15] is High affinity nerve growth factor receptor (Homo sapiens, UniProt P04629). Briefly: Inhibition of TrkA.
Sequence of High affinity nerve growth factor receptor (P04629 whole entry): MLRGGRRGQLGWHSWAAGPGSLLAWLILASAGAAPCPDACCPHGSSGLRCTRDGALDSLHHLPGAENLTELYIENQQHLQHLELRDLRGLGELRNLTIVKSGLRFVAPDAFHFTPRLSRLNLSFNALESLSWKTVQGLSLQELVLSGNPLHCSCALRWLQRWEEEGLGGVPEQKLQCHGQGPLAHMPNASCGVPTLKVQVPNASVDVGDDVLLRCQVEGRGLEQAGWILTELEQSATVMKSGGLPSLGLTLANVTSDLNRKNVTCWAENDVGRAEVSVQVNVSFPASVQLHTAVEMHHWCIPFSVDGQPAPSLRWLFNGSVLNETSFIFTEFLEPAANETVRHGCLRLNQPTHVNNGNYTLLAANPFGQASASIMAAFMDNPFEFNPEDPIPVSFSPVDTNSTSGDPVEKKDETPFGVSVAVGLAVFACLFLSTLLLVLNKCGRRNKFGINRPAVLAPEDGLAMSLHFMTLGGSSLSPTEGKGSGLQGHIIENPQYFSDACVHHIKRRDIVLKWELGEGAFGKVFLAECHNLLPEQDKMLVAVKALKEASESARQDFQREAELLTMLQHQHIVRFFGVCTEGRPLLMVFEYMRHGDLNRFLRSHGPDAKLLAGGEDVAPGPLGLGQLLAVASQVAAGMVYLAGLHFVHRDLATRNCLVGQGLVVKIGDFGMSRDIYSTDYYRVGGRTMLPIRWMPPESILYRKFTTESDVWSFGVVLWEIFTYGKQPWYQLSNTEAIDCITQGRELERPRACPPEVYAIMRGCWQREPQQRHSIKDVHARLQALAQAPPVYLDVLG
The target in data set [16] is Tyrosine-protein kinase Lck (Homo sapiens, UniProt P06239). The data set is described as follows: Inhibition of lck.
Sequence of Tyrosine-protein kinase Lck (P06239 whole entry): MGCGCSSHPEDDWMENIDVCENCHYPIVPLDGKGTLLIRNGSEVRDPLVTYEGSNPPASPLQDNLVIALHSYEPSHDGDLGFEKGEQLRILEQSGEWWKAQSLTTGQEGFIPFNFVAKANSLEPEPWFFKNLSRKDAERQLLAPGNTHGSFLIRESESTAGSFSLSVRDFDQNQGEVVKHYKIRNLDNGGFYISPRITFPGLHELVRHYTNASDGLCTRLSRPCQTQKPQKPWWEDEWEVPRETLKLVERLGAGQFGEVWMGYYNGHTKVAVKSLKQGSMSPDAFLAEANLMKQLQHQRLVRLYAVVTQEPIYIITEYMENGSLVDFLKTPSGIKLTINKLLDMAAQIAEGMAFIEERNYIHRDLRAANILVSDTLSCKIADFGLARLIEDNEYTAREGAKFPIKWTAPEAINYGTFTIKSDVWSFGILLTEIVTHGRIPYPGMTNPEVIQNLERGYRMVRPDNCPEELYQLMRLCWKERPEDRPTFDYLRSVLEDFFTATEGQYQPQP
Data set [17] addresses Hepatocyte growth factor receptor (Homo sapiens, UniProt P08581). Briefly: Inhibition of human recombinant c-Met expressed in insect cell-baculovirus expression system.

Sequence of Insulin receptor (P06213 28-758 limits assumed): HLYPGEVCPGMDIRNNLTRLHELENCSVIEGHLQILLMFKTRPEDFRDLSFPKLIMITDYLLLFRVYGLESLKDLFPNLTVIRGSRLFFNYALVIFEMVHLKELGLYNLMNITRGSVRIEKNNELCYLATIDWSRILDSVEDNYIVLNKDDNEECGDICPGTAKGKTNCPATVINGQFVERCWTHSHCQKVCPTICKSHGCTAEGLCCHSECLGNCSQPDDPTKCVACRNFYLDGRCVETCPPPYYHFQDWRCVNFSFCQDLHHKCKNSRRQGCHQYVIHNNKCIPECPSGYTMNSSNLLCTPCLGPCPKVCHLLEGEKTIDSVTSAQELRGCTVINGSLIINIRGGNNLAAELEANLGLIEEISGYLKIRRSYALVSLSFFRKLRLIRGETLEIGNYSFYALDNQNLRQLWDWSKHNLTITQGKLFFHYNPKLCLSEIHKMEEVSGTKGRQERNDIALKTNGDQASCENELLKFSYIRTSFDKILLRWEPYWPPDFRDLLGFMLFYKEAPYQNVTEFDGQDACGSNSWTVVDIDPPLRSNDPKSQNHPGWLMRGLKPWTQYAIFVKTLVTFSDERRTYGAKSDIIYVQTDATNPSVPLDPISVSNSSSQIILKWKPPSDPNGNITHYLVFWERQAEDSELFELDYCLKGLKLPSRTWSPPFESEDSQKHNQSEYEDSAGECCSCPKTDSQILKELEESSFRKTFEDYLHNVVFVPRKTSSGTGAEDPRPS
Sequence of Insulin receptor (P06213 763-1382 limits assumed): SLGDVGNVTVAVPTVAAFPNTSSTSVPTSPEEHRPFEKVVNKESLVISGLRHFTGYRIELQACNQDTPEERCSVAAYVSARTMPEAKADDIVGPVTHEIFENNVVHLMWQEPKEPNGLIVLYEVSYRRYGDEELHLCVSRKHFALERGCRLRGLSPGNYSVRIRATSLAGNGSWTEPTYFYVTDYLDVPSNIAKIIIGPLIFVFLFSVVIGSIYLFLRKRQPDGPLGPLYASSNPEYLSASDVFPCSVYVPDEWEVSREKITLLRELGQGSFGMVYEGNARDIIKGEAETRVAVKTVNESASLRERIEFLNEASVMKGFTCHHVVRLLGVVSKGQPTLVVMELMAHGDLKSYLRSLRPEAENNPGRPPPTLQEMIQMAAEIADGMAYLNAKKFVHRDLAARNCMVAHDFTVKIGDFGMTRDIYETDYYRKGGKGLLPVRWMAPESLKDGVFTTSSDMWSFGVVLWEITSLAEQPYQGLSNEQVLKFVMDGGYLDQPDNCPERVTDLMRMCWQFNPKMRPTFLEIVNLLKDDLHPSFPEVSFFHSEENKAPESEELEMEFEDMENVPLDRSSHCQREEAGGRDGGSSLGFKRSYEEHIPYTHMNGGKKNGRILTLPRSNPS

In [1], `Cc1c(OCCN2CCN(C)CC2)cn2ncnc(Oc3ccc(NC(=O)c4cc(Cl)ccc4F)cc3F)c12` showed a pIC50 of 6.57.
In turn, `O=C(Cc1ccc(F)cc1)NC(=O)Nc1ccc(Oc2ncnn3ccc(CN4CCNCC4)c23)c(F)c1` showed a solubility in data set [2] of 290 µg/mL (≈ 556 µM).
On to `NC1CCN(Cc2ccn3ncnc(Oc4ccc(NC(=O)NC(=O)Cc5ccc(F)cc5)cc4F)c23)CC1`, for which the Stability in the data set on Liver is recorded as 0 nmol/min/mg; in [3] it was 2 pmol/min. Further, in data set [4], the clearance was 25 mL/min/kg. The bioavailability in data set [5] was determined as 81%. Also, the Cmax in data set [6] was determined as 780 nM. For the same molecule, in data set [7], the Papp is below 1.5 ×10⁻⁶ cm/s. In addition, the pIC50 (in data set [8]; against Insulin receptor; in data set [9]; in data set [10]; in [11]; in data set [12]) was below 5.30 in each case. The pIC50 in data set [13] is below 5.30; in [14] it was below 5.30; in [15], 6.70; in data set [16], below 5.30.
`NC1CCC(=Cc2ccn3ncnc(Oc4ccc(NC(=O)NC(=O)Cc5ccc(F)cc5)cc4F)c23)CC1` (stereo unspecified): the pIC50 in data set [1] was 6.85.
In turn, `Cc1c(OCCCN(C)C)cn2ncnc(Oc3ccc(NC(=O)CC(=O)Nc4ccc(F)cc4)cc3F)c12` gave a pIC50 in data set [1] of 6.57.
`O=C(Cc1ccc(F)cc1)NC(=O)Nc1ccc(Oc2ncnn3ccc(Cl)c23)c(F)c1`: the negative logarithm of the IC50 (pIC50) in data set [17] is below 5.70.
In the case of `Cc1c(OCCN2CCN(C)CC2)cn2ncnc(Oc3ccc(NC(=O)c4ccccc4F)cc3F)c12`, in [1], the pIC50 is 6.08.
With `Cc1c(OCCN2CCN(C)CC2)cn2ncnc(Oc3ccc(NC(=O)c4cc(F)ccc4F)cc3F)c12`, the pIC50 in data set [1] is below 6.00.
In data set [1], `Cc1c(OCCN2CCN(C)CC2)cn2ncnc(Oc3ccc(NC(=O)c4c(F)cccc4F)cc3F)c12` gave a pIC50 below 6.00.
`Cc1c(OCCCN(C)C)cn2ncnc(Oc3ccc(NC(=O)c4c(F)cccc4F)cc3F)c12` had a pIC50 in data set [1] of 6.77.
`Cc1c(OCCCN(C)C)cn2ncnc(Oc3ccc(NC(=O)NC(=O)Cc4ccc(F)cc4)cc3F)c12` gave a pIC50 in data set [1] of 7.17.

As a reminder, the pIC50 is −log10 of the IC50, conventionally taken in molar units. For orientation: solubility means how much of the substance goes into solution per volume. Read a high solubility as much dissolved substance. The term clearance denotes the volume of plasma or blood freed of the substance per unit of time. A higher clearance goes with efficient removal. The term bioavailability denotes the share of a dose that reaches the circulation, judged against a reference dose that is usually intravenous. A word on the Cmax: it is the highest concentration seen after dosing.
